According to patent publication US20230265116A1, “DEGRADATION OF (EGFR) BY CONJUGATION OF EGFR INHIBITORS WITH E3 LIGASE LIGAND AND METHODS OF USE” (BEIGENE, LTD., priority 2020, published 2023):

Columns and labels:
[1] = tested on: EGFR Del19/T790M/C797S (BaF3-DTC cells); experiment: EGFR degradation HTRF assay, BaF3-DTC cells; format: cell-based; settings: 16h treatment; for DTC Dmax (%): maximum percentage of degradation; for DC50: read-out: DTC DC50
Protocol: BaF3 WT(wild type), BaF3-LTC(L858R/T790M/C797S) and BaF3-DTC(Del19/T790M/C797S) cells are treated with compounds diluted in 0.2% DMSO cell culture medium and incubate for 16h, 37° C., 5% CO2, H1975-#36, H1975-#28, H1975-#23 and HCC827 cells are treated with compounds diluted in 0.2% DMSO cell culture medium on day 2, incubate for 16h, 37° C., 5% CO2.the final concentriation of compounds in all assay is start with 10 uM, 5-fold dilution, total 8 doses were included.
After 16h treatment, add HTRF lysis buffer to each well; seal the plate and incubate 1 hour at room temperature on a plate shaker; Once the cells are lysed, 16 μL of cell lysate are transferred to a PE 384-well HTRF detection plate; 4 μL of pre-mixed HTRF antibodies are added to each well; Cover the plate with a plate sealer, spin 1000 rpm for 1 min, Incubate overnight at room temperature; Read on BMG PheraStar with HTRF protocol (337 nm-665 nm-620 nm).
The inhibition (degradation) percentage of the compound was calculated by the following equation: Inhibition percentage of Compound=100-100×(Signal-low control)/(High control-low control), wherein signal=each test compound group
High control=Cell group with added DMSO and without compound, indicating microplate readings without EGFR degradation;
Dmax is the maximum percentage of inhibition (degradation).
The IC50 (DC50) value of a compound can be obtained by fitting the following equation
Y=Bottom+(TOP−Bottom)/(1+((IC50/X)^hillslope))
Wherein, X and Y are known values, and IC50, Hillslope, Top and Bottom are the parameters obtained by fitting with software. Y is the inhibition percentage (calculated from the equation), X is the concentration of the compound; IC50 is the concentration of the compound when the 50% inhibition is reached. The smaller the IC50 value is, the stronger the inhibitory ability of the compound is. Vice versa, the higher the IC50 value is, the weaker the inhibitory ability of the compound is; Hillslope represents the slope of the fitted curve, generally around 1*; Bottom represents the minimum value of the curve obtained by data fitting, which is generally 0%±20%; Top represents the maximum value of the curve obtained by data fitting, which is generally 100%±20%. The experimental data were fitted by calculating and analyzing with Dotmatics data analysis software.

[2] = target: T1, EGFR L858R/T790M/C797S (BaF3-LTC cells) (Homo sapiens, UniProt P00533, C797S/L858R/T790M); experiment: EGFR degradation HTRF assay, BaF3-LTC cells; format: cell-based; settings: BaF3-LTC, 16h treatment; for Dmax: maximum percentage of degradation, read-out: LTC Dmax (%); for DC50: read-out: LTC DC50
T1 construct: expressed in transfected cells; host or cells: BaF3
T1 sequence (P00533 25-1210 T790M/C797S/L858R): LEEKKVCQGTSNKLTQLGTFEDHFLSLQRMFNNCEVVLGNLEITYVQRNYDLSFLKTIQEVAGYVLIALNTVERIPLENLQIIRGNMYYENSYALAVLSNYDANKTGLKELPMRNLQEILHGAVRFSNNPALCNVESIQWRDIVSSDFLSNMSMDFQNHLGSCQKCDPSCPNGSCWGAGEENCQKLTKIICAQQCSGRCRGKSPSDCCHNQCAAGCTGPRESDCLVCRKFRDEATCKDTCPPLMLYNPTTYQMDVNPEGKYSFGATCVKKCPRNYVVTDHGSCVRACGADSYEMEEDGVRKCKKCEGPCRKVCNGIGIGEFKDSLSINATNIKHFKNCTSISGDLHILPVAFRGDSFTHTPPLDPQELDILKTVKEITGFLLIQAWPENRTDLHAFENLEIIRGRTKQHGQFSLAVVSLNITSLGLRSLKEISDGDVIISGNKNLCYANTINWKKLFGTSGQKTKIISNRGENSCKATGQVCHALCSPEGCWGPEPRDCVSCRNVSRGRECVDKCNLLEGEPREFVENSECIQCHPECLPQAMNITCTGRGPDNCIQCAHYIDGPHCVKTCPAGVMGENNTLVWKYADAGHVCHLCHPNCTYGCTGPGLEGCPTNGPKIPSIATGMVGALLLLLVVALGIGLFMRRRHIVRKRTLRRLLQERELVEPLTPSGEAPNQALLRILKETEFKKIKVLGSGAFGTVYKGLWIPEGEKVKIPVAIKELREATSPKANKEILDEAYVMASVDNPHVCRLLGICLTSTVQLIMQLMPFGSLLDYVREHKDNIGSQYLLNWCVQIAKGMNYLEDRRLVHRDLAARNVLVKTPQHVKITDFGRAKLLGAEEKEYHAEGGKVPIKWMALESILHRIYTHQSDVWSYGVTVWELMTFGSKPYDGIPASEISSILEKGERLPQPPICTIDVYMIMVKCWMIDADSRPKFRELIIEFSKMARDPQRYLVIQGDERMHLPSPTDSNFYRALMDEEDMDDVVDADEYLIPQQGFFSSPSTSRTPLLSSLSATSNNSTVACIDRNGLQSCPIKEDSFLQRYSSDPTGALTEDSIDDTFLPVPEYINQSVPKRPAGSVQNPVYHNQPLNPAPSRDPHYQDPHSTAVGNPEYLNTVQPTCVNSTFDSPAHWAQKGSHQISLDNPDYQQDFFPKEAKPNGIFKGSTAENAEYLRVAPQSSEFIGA
In short: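 EGFR remaining after a 16 h, 37 °C exposure (8 doses, 5-fold steps from 10 uM final, 0.2% DMSO) was quantified by HTRF antibodies in cell lysate. Percent inhibition relative to DMSO control was fitted by four-parameter logistic to give DC50; Dmax denotes maximal degradation.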

| Compound | DC50 [1] [nM] | Dmax [2] [%] | DC50 [2] [nM] | DTC Dmax (%) [1] [%] |
| --- | --- | --- | --- | --- |
| CCc1cc(Nc2ncc(Br)c(Nc3ccc4scnc4c3P(C)(C)=O)n2)c(OC)cc1N1CCC(N2CCN(CCc3cc(F)c(C4CCC(=O)NC4=O)c(F)c3)CC2)CC1 (stereo not drawn) [Example 206, 3-(4-(2-(4-(1-(4-((5-bromo-4-((4-(dimethylphosphoryl)benzo[d]thiazol-5-yl)amino)pyrimidin-2-yl)amino)-2-ethyl-5-methoxyphenyl)piperidin-4-yl)piperazin-1-yl)ethyl)-2,6-difluorophenyl)piperidine-2,6-dione] | 9.26 | 92.1 | 20.9 | 94.22 |
| CCc1cc(Nc2ncc(Br)c(Nc3ccc4nccnc4c3P(C)(C)=O)n2)c(OC)cc1N1CCC(N2CCN(C(=O)C3CN(c4ccc5c(c4)CN(C4CCC(=O)NC4=O)C5=O)C3)CC2)CC1 (stereo not drawn) [Example 246, 3-(5-(3-(4-(1-(4-((5-bromo-4-((5-(dimethylphosphoryl)quinoxalin-6-yl)amino)pyrimidin-2-yl)amino)-2-ethyl-5-methoxyphenyl)piperidin-4-yl)piperazine-1-carbonyl)azetidin-1-yl)-1-oxoisoindolin-2-yl)piperidine-2,6-dione] | 1.51 | 91 | 4.47 | 93.85 |
| CCc1cc(Nc2ncc(Br)c(Nc3ccc4nc(C)ccc4c3P(C)(C)=O)n2)c(OC)cc1N1CCC(N2CCN(C3CC(c4ccc(NC5CCC(=O)NC5=O)cc4)C3)CC2)CC1 (stereo not drawn) [Example 709, 3-((4-(3-(4-(1-(4-((5-bromo-4-((5-(dimethylphosphoryl)-2-methylquinolin-6-yl)amino)pyrimidin-2-yl)amino)-2-ethyl-5-methoxyphenyl)piperidin-4-yl)piperazin-1-yl)cyclobutyl)phenyl)amino)piperidine-2,6-dione] | 19.8 | 87.9 | 21.6 | 84.65 |
| CCc1cc(Nc2ncc(Br)c(Nc3ccc4ncn(C)c(=O)c4c3P(C)(C)=O)n2)c(OC)cc1N1CCC(N2CCN(CCc3cccc4c3n(C)c(=O)n4C3CCC(=O)NC3=O)CC2)CC1 (stereo not drawn) [Example 698, 3-(4-(2-(4-(1-(4-((5-bromo-4-((5-(dimethylphosphoryl)-3-methyl-4-oxo-3,4-dihydroquinazolin-6-yl)amino)pyrimidin-2-yl)amino)-2-ethyl-5-methoxyphenyl)piperidin-4-yl)piperazin-1-yl)ethyl)-3-methyl-2-oxo-2,3-dihydro-1H-benzo[d]imidazol-1-yl)piperidine-2,6-dione] | 0.601 | 93.6 | 4.28 | 94.26 |
| CCc1cc(Nc2ncc(Br)c(Nc3ccc4nccnc4c3P(C)(C)=O)n2)c(OC)cc1N1CCC(N2CCN(C(=O)C3CN(c4ccc(C5CCC(=O)NC5=O)c(C#N)c4)C3)CC2)CC1 (stereo not drawn) [Example 306, 5-(3-(4-(1-(4-((5-bromo-4-((5-(dimethylphosphoryl)quinoxalin-6-yl)amino)pyrimidin-2-yl)amino)-2-ethyl-5-methoxyphenyl)piperidin-4-yl)piperazine-1-carbonyl)azetidin-1-yl)-2-(2,6-dioxopiperidin-3-yl)benzonitrile] | 9.57 | 85.8 | 17.1 | 73.14 |
| COc1cc(N2CCC(N3C[C@H]4C[C@@H]3CN4CCC3CCN(c4cc(F)c(C5CCC(=O)NC5=O)c(F)c4)CC3)CC2)c(C)cc1Nc1ncc(Br)c(Nc2ccc3nccnc3c2P(C)(C)=O)n1 (stereo partly drawn) [Example 267, 3-(4-(4-(2-((1R,4R)-5-(1-(4-((5-bromo-4-((5-(dimethylphosphoryl)quinoxalin-6-yl)amino)pyrimidin-2-yl)amino)-5-methoxy-2-methylphenyl)piperidin-4-yl)-2,5-diazabicyclo[2.2.1]heptan-2-yl)ethyl)piperidin-1-yl)-2,6-difluorophenyl)piperidine-2,6-dione] | 17.9 | 90.3 | 47.7 | 93.96 |
| CCc1cc(Nc2ncc(Br)c(Nc3ccc4nccnc4c3P(C)(C)=O)n2)c(OC)cc1N1CCC(N2CCN(CCN(C)c3ccc4c(c3)C(=O)N(C3CCC(=O)NC3=O)C4)CC2)CC1 (stereo not drawn) [Example 249, 3-(6-((2-(4-(1-(4-((5-bromo-4-((5-(dimethylphosphoryl)quinoxalin-6-yl)amino)pyrimidin-2-yl)amino)-2-ethyl-5-methoxyphenyl)piperidin-4-yl)piperazin-1-yl)ethyl)(methyl)amino)-1-oxoisoindolin-2-yl)piperidine-2,6-dione] | 3.01 | 86.7 | 28.6 | 90.4 |

More lines, main results first:

| DC50 [1] [nM] | Dmax [2] [%] | DC50 [2] [nM] | Compound | DTC Dmax (%) [1] [%] |
| --- | --- | --- | --- | --- |
| 7.72 | 87 | 2.93 | CCc1cc(Nc2ncc(Br)c(Nc3ccc4nccnc4c3P(C)(C)=O)n2)c(OC)cc1N1CCC(N2CCN(CC3CN(c4ccc(C5CCC(=O)NC5=O)c(C#N)c4)C3)CC2)CC1 (stereo not drawn) [Example 251, 5-(3-((4-(1-(4-((5-bromo-4-((5-(dimethylphosphoryl)quinoxalin-6-yl)amino)pyrimidin-2-yl)amino)-2-ethyl-5-methoxyphenyl)piperidin-4-yl)piperazin-1-yl)methyl)azetidin-1-yl)-2-(2,6-dioxopiperidin-3-yl)benzonitrile] | 82.01 |
| 7.1 | 88.3 | 8.61 | CCc1cc(Nc2ncc(Br)c(Nc3ccc4nc(C5CC5)ccc4c3P(C)(C)=O)n2)c(OC)cc1N1CCC(N2CCN(CCc3cc(F)c(C4CCC(=O)NC4=O)c(F)c3)CC2)CC1 (stereo not drawn) [Example 427, 3-(4-(2-(4-(1-(4-((5-bromo-4-((2-cyclopropyl-5-(dimethylphosphoryl)quinolin-6-yl)amino)pyrimidin-2-yl)amino)-2-ethyl-5-methoxyphenyl)piperidin-4-yl)piperazin-1-yl)ethyl)-2,6-difluorophenyl)piperidine-2,6-dione] | 93.94 |
| 7.28 | 91.9 | 49.4 | CCc1cc(Nc2ncc(Br)c(Nc3ccc4c(=O)n(C)cnc4c3P(C)(C)=O)n2)c(OC)cc1N1CCC(N2CCN(CCC3CCN(c4cc(F)c(C5CCC(=O)NC5=O)c(F)c4)CC3)CC2)CC1 (stereo not drawn) [Example 721, 3-(4-(4-(2-(4-(1-(4-((5-bromo-4-((8-(dimethylphosphoryl)-3-methyl-4-oxo-3,4-dihydroquinazolin-7-yl)amino)pyrimidin-2-yl)amino)-2-ethyl-5-methoxyphenyl)piperidin-4-yl)piperazin-1-yl)ethyl)piperidin-1-yl)-2,6-difluorophenyl)piperidine-2,6-dione] | 88.98 |
| 2.17 | 90.8 | 5.64 | CCc1cc(Nc2ncc(Br)c(Nc3ccc4nc(C)ccc4c3P(C)(C)=O)n2)c(OC)cc1N1CCC(N2CCN(C(=O)C(C)(C)CNc3cc(F)c(C4CCC(=O)NC4=O)c(F)c3)CC2)CC1 (stereo not drawn) [Example 706, 3-(4-((3-(4-(1-(4-((5-bromo-4-((5-(dimethylphosphoryl)-2-methylquinolin-6-yl)amino)pyrimidin-2-yl)amino)-2-ethyl-5-methoxyphenyl)piperidin-4-yl)piperazin-1-yl)-2,2-dimethyl-3-oxopropyl)amino)-2,6-difluorophenyl)piperidine-2,6-dione] | 88.51 |
| 4.41 | 89.4 | 9.39 | CCc1cc(Nc2ncc(Br)c(Nc3ccc4nccnc4c3P(C)(C)=O)n2)c(OC)cc1N1CCC(N2CCN(CCNc3cccc4c3CN(C3CCC(=O)NC3=O)C4=O)CC2)CC1 (stereo not drawn) [Example 248, 3-(4-((2-(4-(1-(4-((5-bromo-4-((5-(dimethylphosphoryl)quinoxalin-6-yl)amino)pyrimidin-2-yl)amino)-2-ethyl-5-methoxyphenyl)piperidin-4-yl)piperazin-1-yl)ethyl)amino)-1-oxoisoindolin-2-yl)piperidine-2,6-dione] | 89.62 |
